Results on 26 molecules are retold here after EP1247803A2, “Indolinone compounds suitable for modulation of protein kinases” (Sugen, Inc., priority 1996, dated 1998).

Structures are written as SMILES.

The assay deals with T1, EGFR (Homo sapiens, UniProt P00533).
T1 construct: Add 7 ug A431 cell lysate per well (EGFR source); endogenous in cells; host or cells: A431
T1 sequence (P00533 25-1210): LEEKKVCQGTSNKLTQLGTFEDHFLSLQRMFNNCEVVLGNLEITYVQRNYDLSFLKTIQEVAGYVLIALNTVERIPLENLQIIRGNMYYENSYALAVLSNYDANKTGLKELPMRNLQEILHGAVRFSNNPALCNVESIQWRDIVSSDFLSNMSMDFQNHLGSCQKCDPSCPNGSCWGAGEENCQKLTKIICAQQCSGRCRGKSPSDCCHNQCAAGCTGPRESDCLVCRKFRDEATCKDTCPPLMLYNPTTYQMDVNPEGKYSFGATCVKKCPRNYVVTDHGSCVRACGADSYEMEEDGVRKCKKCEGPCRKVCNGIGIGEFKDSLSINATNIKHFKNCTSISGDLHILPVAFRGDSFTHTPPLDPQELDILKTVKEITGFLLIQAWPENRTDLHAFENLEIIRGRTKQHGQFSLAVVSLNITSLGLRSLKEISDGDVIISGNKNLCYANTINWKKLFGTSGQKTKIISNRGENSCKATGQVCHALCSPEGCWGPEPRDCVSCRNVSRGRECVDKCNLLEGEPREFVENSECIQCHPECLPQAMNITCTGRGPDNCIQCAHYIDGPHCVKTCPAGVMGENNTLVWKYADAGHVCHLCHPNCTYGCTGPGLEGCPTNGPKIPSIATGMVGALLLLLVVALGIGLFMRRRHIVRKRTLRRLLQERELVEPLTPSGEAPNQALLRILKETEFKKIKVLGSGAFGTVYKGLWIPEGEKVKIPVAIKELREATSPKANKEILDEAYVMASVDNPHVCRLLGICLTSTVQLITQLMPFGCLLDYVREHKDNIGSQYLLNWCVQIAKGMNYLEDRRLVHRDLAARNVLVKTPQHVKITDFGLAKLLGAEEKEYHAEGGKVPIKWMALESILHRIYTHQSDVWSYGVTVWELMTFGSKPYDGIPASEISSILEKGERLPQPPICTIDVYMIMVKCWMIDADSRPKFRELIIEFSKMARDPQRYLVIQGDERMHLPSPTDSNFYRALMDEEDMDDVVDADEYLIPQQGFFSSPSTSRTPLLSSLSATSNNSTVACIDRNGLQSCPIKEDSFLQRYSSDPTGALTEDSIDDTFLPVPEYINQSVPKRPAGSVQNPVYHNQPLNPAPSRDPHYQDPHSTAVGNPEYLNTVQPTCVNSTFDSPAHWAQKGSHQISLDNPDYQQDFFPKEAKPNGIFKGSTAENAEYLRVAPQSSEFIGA
Briefly: EGFR ELISA assay (in vitro kinase activity, EGFR captured from A431 cell lysate). The assay is classed as biochemical. The arrangement: concentration or dose not given beside the values. The method in brief: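 EGFR from A431 lysate was captured on plates coated with anti-EGFR antibody. Compounds were added 30 min before a 5 min phosphorylation with 3 µM ATP/5 mM MnCl2, which was stopped with 20 mM EDTA. Phosphotyrosine was detected with rabbit anti-phosphotyrosine, then a peroxidase-conjugated secondary and ABTS/H2O2, read at 410 nm.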
(In general: An ELISA detects its analyte on a solid surface through an enzyme-linked reagent.)
`CCOc1cc(C=C2C(=O)Nc3ccc(S(=O)(=O)N4CCOCC4)cc32)ccc1O` [10720/F09]: the “Biochem EGFR %Inhibition” value is 6.4%.

With `CCOc1cc(C=C2C(=O)Nc3ccc(S(=O)(=O)Nc4ccc(C(F)(F)F)cc4)cc32)ccc1O` [10720/E09], the “Biochem EGFR %Inhibition” value is on record as 56.4%.

Turning to `CSc1ccc(C=C2C(=O)Nc3ccc(S(=O)(=O)Nc4ccc(C(F)(F)F)cc4)cc32)s1` [10720/E07], the “Biochem EGFR %Inhibition” value came out at 55.1%.

As to `Cc1c(Br)ccc2c1C(=Cc1cc([N+](=O)[O-])cc(CCl)c1O)C(=O)N2` [10721/C06], the “Biochem EGFR %Inhibition” value is listed as 80.2%.

With `O=C1Nc2ccc(CCCl)cc2C1=Cc1ccccc1` [10720/G06], the “Biochem EGFR %Inhibition” value is reported as -10.4%.

With `CNS(=O)(=O)c1ccc2c(c1)C(=Cc1ccc(Cl)s1)C(=O)N2` [10721/D07], the “Biochem EGFR %Inhibition” value is reported as 23.0%.

As to `Cc1cc(O)cc(O)c1C=C1C(=O)Nc2ccc(S(=O)(=O)Nc3ccc(C(F)(F)F)cc3)cc21` [10720/E08], the “Biochem EGFR %Inhibition” value came to 37.4%.

Take `Cc1cc(C=C2C(=O)Nc3c(Br)cc(Br)cc32)sc1C` [10721/A04]: the “Biochem EGFR %Inhibition” value is listed as 59.0%.

For the molecule `CNS(=O)(=O)c1ccc2c(c1)C(=Cc1nn(C)cc1Cl)C(=O)N2` [10721/D03], the “Biochem EGFR %Inhibition” value was 11.6%.

`COc1cccc(O)c1C=C1C(=O)Nc2ccc(Br)c(C)c21` [10717/C10]: the “Biochem EGFR %Inhibition” value is 17.5%.

On to `Cc1c(Br)ccc2c1C(=Cc1cc(Br)c(O)c(C(C)(C)C)c1)C(=O)N2` [10721/C10], for which the “Biochem EGFR %Inhibition” value is 17.4%.

For `O=C1Nc2ccc(S(=O)(=O)N3CCOCC3)cc2C1=Cc1c(F)cc(F)cc1F` [10720/F02], the “Biochem EGFR %Inhibition” value is listed as -19.3%.

Turning to `O=C1Nc2ccc(S(=O)(=O)N3CCOCC3)cc2C1=Cc1ccccc1` [10720/F06], the “Biochem EGFR %Inhibition” value is -24.3%.

For the molecule `COc1ccc(C=C2C(=O)Nc3ccc(CCCl)cc32)cc1OC` [10720/G04], the “Biochem EGFR %Inhibition” value is on record as -34.1%.

Regarding `O=C1Nc2ccc(S(=O)(=O)Nc3ccc(C(F)(F)F)cc3)cc2C1=Cc1ncc[nH]1` [10720/E11], the “Biochem EGFR %Inhibition” value is -65.5%.

In the case of `Cc1cc(C=C2C(=O)Nc3ccc(Br)c(C)c32)sc1C` [10721/C04], the “Biochem EGFR %Inhibition” value was 77.7%.

`CNS(=O)(=O)c1ccc2c(c1)C(=Cc1ncc[nH]1)C(=O)N2` [10720/D11]: the “Biochem EGFR %Inhibition” value is -5.5%.

Regarding `Cc1cc(C)c(C=C2C(=O)Nc3c(Br)cc(Br)cc32)[nH]1` [10721/A08], the “Biochem EGFR %Inhibition” value is on record as 24.0%.

In the case of `COc1ccc(O)c(C=C2C(=O)Nc3ccc(S(=O)(=O)N4CCOCC4)cc32)c1` [10720/F10], the “Biochem EGFR %Inhibition” value worked out at 6.0%.

Consider `Cc1c(Br)ccc2c1C(=Cc1ccc(O)c(C(C)(C)C)c1)C(=O)N2` [10721/C09], for which the “Biochem EGFR %Inhibition” value turned out to be 39.8%.

On to `Cc1c(Br)ccc2c1C(=Cc1nn(C)cc1Cl)C(=O)N2` [10721/C03], for which the “Biochem EGFR %Inhibition” value stood at 64.6%.

For the molecule `CNS(=O)(=O)c1ccc2c(c1)C(=Cc1[nH]c(C)cc1C)C(=O)N2` [10721/D08], the “Biochem EGFR %Inhibition” value amounted to 31.7%.

For the molecule `Cc1cc(C)c(C=C2C(=O)Nc3ccc(I)cc32)[nH]1` [10721/B08], the “Biochem EGFR %Inhibition” value was 64.0%.

For the molecule `CNS(=O)(=O)c1ccc2c(c1)C(=Cc1ccc(O)c(C(C)(C)C)c1)C(=O)N2` [10721/D09], the “Biochem EGFR %Inhibition” value is given as 15.3%.

Consider `O=C1Nc2ccc(CCCl)cc2C1=Cc1c(F)cc(F)cc1F` [10720/G02], for which the “Biochem EGFR %Inhibition” value is given as -13.1%.

For the molecule `COc1ccc(C=C2C(=O)Nc3ccc(S(=O)(=O)N4CCOCC4)cc32)cc1OC` [10720/F04], the “Biochem EGFR %Inhibition” value is -11.7%.
